# In patent publication US20050209343A1, “Percutaneous absorption promoters and compositions for treating athlete's foot” (priority 2002, published 2005):
# Tests used:
# [1] = Percutaneous absorbability test: amount of antifungal agent in skin after ointment administration; conditions: for Amount of antifungal agent in skin relative to antifungal agent alone (100), value in parentheses: same test, 2 hours after administration, *p<0.05, **p<0.01 Student t-test
# Description: Using clotrimazole, bifonazole, and econazole as antifungal agents, the percutaneous absorption promoting effects of reduced coenzyme Q10 and oxidized coenzyme Q10 to these antifungal agents were evaluated. The antifungal agents were separately dissolved in ethanol, mixed with heat-melted polyethylene glycol 1000 (PEG 1000) so as to have the final concentration of 1%, and prepared into ointments by allowing them to stand at room temperature. Each of heat-melted reduced coenzyme Q10 and oxidized coenzyme Q10 was mixed with the above-mentioned heat-melted PEG 1000 ointment containing each antifungal agent to prepare mixed ointments in which each of the final concentrations of coenzyme Q10s and antifungal agent is 1%.
# A percutaneous absorbability test was carried out using fully fed male hairless rats (weight: 350 to 400 g). The hairless rats were mildly anesthetized with ether, and three administration parts of 3 cm square were set on the backs of each rat. To each part, 0.1 g of each ointment, i.e. the ointment containing an antifungal agent alone, the ointment containing an antifungal agent and reduced coenzyme Q10, and the ointment containing an antifungal agent and oxidized coenzyme Q10 was administered. After the lapse of 2 hours from the administration, the rat was euthanized, the administration parts were thoroughly washed, and skin was collected. The clotrimazole amounts in skin were determined by the sequential treatment subjecting the skin to homogenization, acetone extraction, concentration using a solid phase column, and high performance liquid chromatography. Each amount of bifonazole and econazole in the skin was determined by the sequential treatment subjecting the skin to homogenization, methanol extraction, and high performance liquid chromatography.
# The values are the average value ±standard deviation (n=3).
# [2] = everyday administration, 1200 mg/kg/day for 52 weeks (Williams et al. 1999); cited from earlier work
# [3] = Skin irritation test (Draize method); format: in vivo, JW rabbits
# Description: A skin irritation test was carried out using JW rabbits (17 to 18 weeks old). The backs of three rabbits were dehaired by an electric hair clipper, and four divisions of administration parts of 2.5×2.5 cm square were set on each rabbit back. 0.5 g of each specimen, i.e. oxidized coenzyme Q10 and reduced coenzyme Q10 (containing 2% of oxidized coenzyme Q10) was administered on the administration parts, and the parts were covered with gauzes for specimen's fixation. After the lapse of 4 hours, the specimens were removed. Further after the lapse of 1 hour, 24 hours, 48 hours, and 72 hours, formation of erythema, crusta and dropsy was determined by the method according to Draize J. H. et al. (Exp. Ther., 82, 377-390, 1944). That is, observations were made in view of formations of erythema, crusta and dropsy, they were scored for calculation of the primary irritation indexes, and the skin irritations were evaluated based on said primary irritation indexes. As a result, all scores were 0 (i.e. no erythema, crusta or dropsy) in observation items of oxidized coenzyme Q10 and reduced coenzyme Q10.
smiles,measurement,setting,value
"c1ccc(-c2ccc(C(c3ccccc3)n3ccnc3)cc2)cc1 (stereo not drawn) [Bifonazole, bifonazole]","Amount of antifungal agent in skin relative to antifungal agent alone (100), value in parentheses",[1],(100)
"Clc1ccccc1C(c1ccccc1)(c1ccccc1)n1ccnc1 [Clotrimazole, clotrimazole]","Amount of antifungal agent in skin relative to antifungal agent alone (100), value in parentheses",[1],(100)
"Clc1ccc(COC(Cn2ccnc2)c2ccc(Cl)cc2Cl)cc1 (stereo not drawn) [Econazole, econazole]","Amount of antifungal agent in skin relative to antifungal agent alone (100), value in parentheses",[1],(100)
COC1=C(OC)C(=O)C(C/C=C(\C)CC/C=C(\C)CC/C=C(\C)CC/C=C(\C)CC/C=C(\C)CC/C=C(\C)CC/C=C(\C)CC/C=C(\C)CC/C=C(\C)CCC=C(C)C)=C(C)C1=O [coenzyme Q10],Toxic influence in chronic toxicity test,[2],completely no toxic influence had been observed
COC1=C(OC)C(=O)C(C/C=C(\C)CC/C=C(\C)CC/C=C(\C)CC/C=C(\C)CC/C=C(\C)CC/C=C(\C)CC/C=C(\C)CC/C=C(\C)CC/C=C(\C)CCC=C(C)C)=C(C)C1=O [oxidized coenzyme Q10],"Scores for erythema, crusta and dropsy (Draize)","[3]; rabbit, in vivo",0
same,Skin irritation (based on primary irritation index),"[3]; rabbit, in vivo",no skin irritation was observed
same,Increase of antifungal agent amount in skin,"[1]; rat, in vivo",20-40%
COc1c(O)c(C)c(C/C=C(\C)CC/C=C(\C)CC/C=C(\C)CC/C=C(\C)CC/C=C(\C)CC/C=C(\C)CC/C=C(\C)CC/C=C(\C)CC/C=C(\C)CCC=C(C)C)c(O)c1OC [reduced coenzyme Q10],"Scores for erythema, crusta and dropsy (Draize)","[3]; 0.5 g on 2.5×2.5 cm dehaired back skin for 4 hours, observed 1, 24, 48 and 72 hours after removal, three rabbits",0
same,Skin irritation (based on primary irritation index),"[3]; 0.5 g on dehaired back skin for 4 hours, observed up to 72 hours after removal",no skin irritation was observed
